Reference: ChEMBL document CHEMBL1201862, “PubChem BioAssay data set” (2004)
Active and inactive are the calls of the source.

Legend:
[1] = target: 5-hydroxytryptamine receptor 2A (Mus musculus, UniProt P35363); type: functional, cell-based;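 further: CHO-K1 cells with tagged receptor and beta-arrestin; agonist potency measured as compound-induced activation of the receptor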
[2] = target: Mu-type opioid receptor (Homo sapiens, UniProt P35372); type: functional, cell-based;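 further: U2OS cells with beta-arrestin recruitment to OPRM1 by beta-gal complementation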
[3] = system: Vero; assay: viability loss in Vero cells – cell-based, plate reader, cherry-pick samples, cytotoxicity control, dose response (AID 687020); type: functional; details: Chlorocebus sabaeus
[4] = target: Neuropeptides B/W receptor type 1 (Homo sapiens, UniProt P48145); assay: human NPBW1 receptor blockade, IC50 – cell-based, fluorescence, dose response, set 5, late-stage follow-up (AID 588566); type: functional
[5] = target: Melanin-concentrating hormone receptor 1 (Homo sapiens, UniProt Q99705); assay: Late-stage fluorescence-based counterscreen for antagonists of the G-protein coupled receptor 7 (GPR7): cell-based dose response assay to identify antagonists of the melanin-concentrating hormone receptor 1 (MCHR1) Set 5.; type: functional
[6] = target: ADP-ribosylation factor GTPase-activating protein 1 (Rattus norvegicus, UniProt Q62848); assay: Fluorescence polarization-based biochemical high throughput dose response screening assay to identify inhibitors of ADP-ribosylation factor GTPase activating protein 1 (ARFGAP1).; type: functional
[7] = target: Arf-GAP with SH3 domain, ANK repeat and PH domain-containing protein 1 (Homo sapiens, UniProt Q9ULH1); type: functional;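 further: biochemical fluorescence polarization dose–response screen measuring inhibition of ASAP1; ASAP1 GAP domain stimulating GTP hydrolysis by truncated human ARF1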
[8] = target: Aryl hydrocarbon receptor (Homo sapiens, UniProt P35869); details: Potency;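 further: confirmatory quantitative high-throughput screen measuring activation of the AhR signaling pathway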
[9] = target: Nuclear receptor subfamily 5 group A member 2 (Homo sapiens, UniProt O00482); type: functional, cell-based;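 further: HEK293T cells transfected with LRH-1 and a StAR promoter luciferase reporter; potency for inhibitors that lower LRH-1 driven reporter light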
[10] = target: Steroidogenic factor 1 (Homo sapiens, UniProt Q13285); assay: Counterscreen for inverse agonists of the liver receptor homolog-1 (LRH-1; NR5A2): Luminescence-based cell-based high throughput dose response assay to identify inverse agonists of the Steroidogenic Factor 1 Nuclear Receptor (SF1; NR5A1).; type: functional
[11] = nonselective StAR promoter luciferase inhibitors – cell-based, luminescence, luciferase reporter, counter-screen for LRH-1 inverse agonist project, dose response (AID 651969); type: functional
[12] = luciferase reporter signal suppression in cells – H4 neuroglioma cells, luminescence, dose response (AID 1990); type: functional, cell-based
[13] = general cell-killing toxicity readout – plate reader, dry powder samples, cytotoxicity control for PAX8 inhibitor project, dose response (AID 743021); type: functional, cell-based
[14] = target: Long-chain-fatty-acid--AMP ligase FadD28 (Mycobacterium tuberculosis, UniProt P9WQ59); assay: Fluorescence polarization aasay to screen for inhibitors that compete for the binding of FadD28 to a bisubstrate Measured in Biochemical System Using Plate Reader - 2147-01_Inhibitor_Dose_CherryPick_Activity.; type: functional, Mycobacterium tuberculosis H37Rv
[15] = target: T1, Interleukin-8 (Homo sapiens, UniProt P10145); assay: Dose Response confirmation of uHTS small molecule hits for cystic fibrosis induced NFkb Inhibitors in a TNFa-induced IL8 counterscreen.; type: functional; details: read-out: IC50_Mean
[16] = general mammalian cell viability loss – inhibitor set, cherry-pick, set 2, cytotoxicity control for miR-122 modulator project, dose response (AID 720697); type: functional, cell-based
[17] = activation of miR-122 Renilla sensor silencing – cell-based, Huh7 psiCHECK-miR122, Renilla luciferase, cherry-picked, dose response (AID 651956); type: functional;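 further: huh7 hepatoma cells stably carrying a psiCHECK-2 miR-122 sensor plasmid; renilla luciferase signal reporting endogenous miR-122 activity after 48 h compound exposure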
[18] = Luminescence Cell-Based Dose Response HTS to Identify Inhibitors of 5'UTR Stem-Loop Driven Prion Protein mRNA Translation in H4 Neuroglioblastoma Cells. [Related pubchem assays: 1827 (Project Summary), 1813 (Primary HTS)]; type: functional
[19] = target: T1, Interleukin-8; assay: Dose Response confirmation of uHTS small molecule hits for cystic fibrosis induced NFkb Inhibitors in a PAF-induced IL8 counterscreen.; type: functional; details: read-out: IC50_Mean
[20] = target: T2, Streptokinase A (Streptococcus pyogenes serotype M1, UniProt P10520); assay: viability-normalized secreted streptokinase activity reduction – plasminogen activation absorbance, OD405, dose response (AID 1914); type: functional, Streptococcus pyogenes M1 GAS;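 further: secreted streptokinase activity via plasminogen activation per viability signal from cell pellet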
T2 sequence (P10520 whole entry): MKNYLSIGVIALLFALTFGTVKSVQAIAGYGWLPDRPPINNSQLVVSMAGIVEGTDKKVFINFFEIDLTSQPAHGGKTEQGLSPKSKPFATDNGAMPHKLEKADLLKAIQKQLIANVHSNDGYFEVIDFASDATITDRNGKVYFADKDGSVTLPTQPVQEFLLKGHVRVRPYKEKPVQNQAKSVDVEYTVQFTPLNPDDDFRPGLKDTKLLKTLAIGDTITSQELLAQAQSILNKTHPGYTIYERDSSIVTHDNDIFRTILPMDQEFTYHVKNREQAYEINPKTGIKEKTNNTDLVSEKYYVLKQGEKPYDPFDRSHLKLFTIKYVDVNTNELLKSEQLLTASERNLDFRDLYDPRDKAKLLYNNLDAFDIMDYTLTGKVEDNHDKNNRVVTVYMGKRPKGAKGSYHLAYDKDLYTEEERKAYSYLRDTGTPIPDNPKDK

[21] = system: INS1; assay: INS-1E survival protection against cytokine death – cell-based, luminescence, retest, dose response (AID 449756); type: functional; details: Rattus norvegicus;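 further: cell death triggered by IL-1 beta plus TNF-alpha plus IFN-gamma mixture; protective hits raise ATP signal compared with cytokine alone wells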
[22] = general mammalian cell viability loss – activator set, cherry-pick, cytotoxicity control for miR-122 modulator project, dose response (AID 720690); type: functional, cell-based;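 further: HEK293T human cells scored for general mammalian cytotoxicity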
[23] = target: Paired box protein Pax-8 (Homo sapiens, UniProt Q06710); assay: PAX8 transcriptional activity inhibition in RMG-I – RMG-I cells, luciferase, cherry-pick, dose response (AID 687027); type: functional, cell-based;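 further: luciferase reporter driven by Pax8 target thyroperoxidase promoter measured by SteadyGlo luminescence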
[24] = alpha-synuclein stem-loop luciferase translation blockers – H4 neuroglioma cells, luminescence, confirmation (AID 1988); type: functional, cell-based
[25] = system: Streptococcus; assay: GAS UMAA2166 growth inhibition – luminescence, BacTiterGlo, counter-screen for streptokinase expression inhibitor project, dose response (AID 1915); type: functional, organism-based;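 further: potency for reduction of bacterial viability or growth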
[26] = target: Melanocortin receptor 4 (Homo sapiens, UniProt P32245); type: functional, cell-based;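 further: Cell-based assay with luminescence read-out, confirmatory dose-response testing for agonist activity of biased ligands at MC4R; human U2OS cells with tagged receptor and beta-arrestin; potency of agonists that increase receptor coupling to beta-arrestin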
[27] = system: Streptococcus sp. 'group A'; assay: Streptococcus pyogenes SK(-)GAS viability under kanamycin – luminescence, BacTiterGlo, confirmation, counter-screen for streptokinase expression inhibitor project, dose response (AID 1900); type: functional, organism-based
[28] = target: T3, Ubiquitin-conjugating enzyme E2 N (Homo sapiens, UniProt P61088); type: functional;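 further: Dose-response confirmation in a TR-FRET assay detecting UBC13-driven polyubiquitin chain formation, inhibition measured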
T3 sequence (P61088 whole entry): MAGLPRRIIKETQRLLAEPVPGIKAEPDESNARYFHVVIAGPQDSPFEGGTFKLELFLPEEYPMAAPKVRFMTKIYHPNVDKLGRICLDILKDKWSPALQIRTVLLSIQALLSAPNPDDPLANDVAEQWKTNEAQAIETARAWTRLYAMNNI

Neuropeptides B/W receptor type 1, sequence (P48145 whole entry): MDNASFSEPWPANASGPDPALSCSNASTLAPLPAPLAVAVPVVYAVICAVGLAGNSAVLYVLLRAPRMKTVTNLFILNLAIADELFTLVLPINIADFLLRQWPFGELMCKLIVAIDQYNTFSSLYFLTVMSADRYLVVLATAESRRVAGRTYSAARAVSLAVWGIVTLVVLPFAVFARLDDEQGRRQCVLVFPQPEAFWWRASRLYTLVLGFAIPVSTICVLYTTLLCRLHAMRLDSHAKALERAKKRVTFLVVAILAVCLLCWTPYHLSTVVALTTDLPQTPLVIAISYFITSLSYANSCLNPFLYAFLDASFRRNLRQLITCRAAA
Melanocortin receptor 4, sequence (P32245 whole entry): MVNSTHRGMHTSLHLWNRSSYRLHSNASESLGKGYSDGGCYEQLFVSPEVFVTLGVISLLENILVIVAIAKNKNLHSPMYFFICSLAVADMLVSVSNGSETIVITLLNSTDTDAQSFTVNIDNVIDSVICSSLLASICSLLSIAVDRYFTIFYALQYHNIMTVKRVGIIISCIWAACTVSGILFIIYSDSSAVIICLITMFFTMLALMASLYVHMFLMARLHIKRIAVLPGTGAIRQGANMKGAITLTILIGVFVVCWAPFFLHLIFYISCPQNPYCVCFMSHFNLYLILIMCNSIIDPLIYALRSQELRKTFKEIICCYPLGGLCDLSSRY
Melanin-concentrating hormone receptor 1, sequence (Q99705 whole entry): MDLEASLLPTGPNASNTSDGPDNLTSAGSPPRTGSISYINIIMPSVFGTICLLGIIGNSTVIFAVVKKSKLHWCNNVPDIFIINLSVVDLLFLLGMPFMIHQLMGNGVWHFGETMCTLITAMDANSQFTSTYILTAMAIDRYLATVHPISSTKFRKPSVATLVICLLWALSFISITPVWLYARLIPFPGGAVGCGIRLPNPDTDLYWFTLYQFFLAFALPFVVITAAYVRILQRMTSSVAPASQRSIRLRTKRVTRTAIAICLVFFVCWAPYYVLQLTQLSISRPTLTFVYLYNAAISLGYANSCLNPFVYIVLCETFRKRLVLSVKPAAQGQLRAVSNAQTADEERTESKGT
T1 sequence (P10145 whole entry): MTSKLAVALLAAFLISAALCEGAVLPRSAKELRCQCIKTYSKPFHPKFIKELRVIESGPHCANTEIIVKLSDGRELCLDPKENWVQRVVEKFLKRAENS
Mu-type opioid receptor, sequence (P35372 whole entry): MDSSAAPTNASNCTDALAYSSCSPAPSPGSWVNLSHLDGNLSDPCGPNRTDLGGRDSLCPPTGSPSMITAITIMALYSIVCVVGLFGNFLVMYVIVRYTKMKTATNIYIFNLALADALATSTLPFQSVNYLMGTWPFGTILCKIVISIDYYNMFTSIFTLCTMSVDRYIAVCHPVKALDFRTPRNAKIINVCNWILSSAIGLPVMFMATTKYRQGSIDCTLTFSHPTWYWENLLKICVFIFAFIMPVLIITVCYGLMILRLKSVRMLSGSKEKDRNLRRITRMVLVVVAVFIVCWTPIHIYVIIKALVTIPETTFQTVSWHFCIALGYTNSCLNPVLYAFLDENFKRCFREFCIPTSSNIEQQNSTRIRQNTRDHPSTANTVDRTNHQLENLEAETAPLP
Steroidogenic factor 1, sequence (Q13285 whole entry): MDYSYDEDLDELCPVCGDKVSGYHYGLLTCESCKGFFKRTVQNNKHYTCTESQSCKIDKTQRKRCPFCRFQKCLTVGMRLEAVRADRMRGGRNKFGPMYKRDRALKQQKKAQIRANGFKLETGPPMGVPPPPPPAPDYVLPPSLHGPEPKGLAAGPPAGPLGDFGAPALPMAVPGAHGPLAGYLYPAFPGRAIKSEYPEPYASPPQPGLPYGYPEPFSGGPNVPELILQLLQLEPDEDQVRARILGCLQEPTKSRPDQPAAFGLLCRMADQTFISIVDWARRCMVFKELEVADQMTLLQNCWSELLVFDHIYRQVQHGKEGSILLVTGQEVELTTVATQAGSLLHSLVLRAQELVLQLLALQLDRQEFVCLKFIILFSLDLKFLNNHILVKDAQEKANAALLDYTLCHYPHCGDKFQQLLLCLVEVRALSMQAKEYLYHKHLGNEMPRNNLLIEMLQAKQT
Aryl hydrocarbon receptor, sequence (P35869 whole entry): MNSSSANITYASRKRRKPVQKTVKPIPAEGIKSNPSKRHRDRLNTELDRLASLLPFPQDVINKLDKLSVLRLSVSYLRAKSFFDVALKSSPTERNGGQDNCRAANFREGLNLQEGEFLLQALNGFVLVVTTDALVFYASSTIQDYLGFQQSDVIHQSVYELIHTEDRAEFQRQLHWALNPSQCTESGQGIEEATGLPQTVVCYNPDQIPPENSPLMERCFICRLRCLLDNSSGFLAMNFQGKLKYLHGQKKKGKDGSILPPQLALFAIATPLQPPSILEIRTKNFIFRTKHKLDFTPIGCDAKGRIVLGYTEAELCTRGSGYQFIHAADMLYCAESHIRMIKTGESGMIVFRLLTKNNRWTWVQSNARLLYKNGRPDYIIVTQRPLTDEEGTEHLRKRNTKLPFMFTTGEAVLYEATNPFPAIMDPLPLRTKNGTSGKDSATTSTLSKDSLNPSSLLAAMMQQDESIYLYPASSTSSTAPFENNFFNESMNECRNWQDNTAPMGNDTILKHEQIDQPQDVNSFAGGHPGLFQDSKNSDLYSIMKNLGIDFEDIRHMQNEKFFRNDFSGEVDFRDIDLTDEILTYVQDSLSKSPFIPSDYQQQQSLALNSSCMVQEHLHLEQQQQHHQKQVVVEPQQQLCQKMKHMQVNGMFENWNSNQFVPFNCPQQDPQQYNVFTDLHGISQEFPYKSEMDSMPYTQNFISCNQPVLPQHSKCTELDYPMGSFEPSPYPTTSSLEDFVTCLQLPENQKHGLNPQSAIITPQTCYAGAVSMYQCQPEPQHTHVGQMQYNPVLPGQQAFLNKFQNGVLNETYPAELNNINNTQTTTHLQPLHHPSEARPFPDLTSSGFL
Arf-GAP with SH3 domain, ANK repeat and PH domain-containing protein 1, sequence (Q9ULH1 whole entry, the tested form may be a part): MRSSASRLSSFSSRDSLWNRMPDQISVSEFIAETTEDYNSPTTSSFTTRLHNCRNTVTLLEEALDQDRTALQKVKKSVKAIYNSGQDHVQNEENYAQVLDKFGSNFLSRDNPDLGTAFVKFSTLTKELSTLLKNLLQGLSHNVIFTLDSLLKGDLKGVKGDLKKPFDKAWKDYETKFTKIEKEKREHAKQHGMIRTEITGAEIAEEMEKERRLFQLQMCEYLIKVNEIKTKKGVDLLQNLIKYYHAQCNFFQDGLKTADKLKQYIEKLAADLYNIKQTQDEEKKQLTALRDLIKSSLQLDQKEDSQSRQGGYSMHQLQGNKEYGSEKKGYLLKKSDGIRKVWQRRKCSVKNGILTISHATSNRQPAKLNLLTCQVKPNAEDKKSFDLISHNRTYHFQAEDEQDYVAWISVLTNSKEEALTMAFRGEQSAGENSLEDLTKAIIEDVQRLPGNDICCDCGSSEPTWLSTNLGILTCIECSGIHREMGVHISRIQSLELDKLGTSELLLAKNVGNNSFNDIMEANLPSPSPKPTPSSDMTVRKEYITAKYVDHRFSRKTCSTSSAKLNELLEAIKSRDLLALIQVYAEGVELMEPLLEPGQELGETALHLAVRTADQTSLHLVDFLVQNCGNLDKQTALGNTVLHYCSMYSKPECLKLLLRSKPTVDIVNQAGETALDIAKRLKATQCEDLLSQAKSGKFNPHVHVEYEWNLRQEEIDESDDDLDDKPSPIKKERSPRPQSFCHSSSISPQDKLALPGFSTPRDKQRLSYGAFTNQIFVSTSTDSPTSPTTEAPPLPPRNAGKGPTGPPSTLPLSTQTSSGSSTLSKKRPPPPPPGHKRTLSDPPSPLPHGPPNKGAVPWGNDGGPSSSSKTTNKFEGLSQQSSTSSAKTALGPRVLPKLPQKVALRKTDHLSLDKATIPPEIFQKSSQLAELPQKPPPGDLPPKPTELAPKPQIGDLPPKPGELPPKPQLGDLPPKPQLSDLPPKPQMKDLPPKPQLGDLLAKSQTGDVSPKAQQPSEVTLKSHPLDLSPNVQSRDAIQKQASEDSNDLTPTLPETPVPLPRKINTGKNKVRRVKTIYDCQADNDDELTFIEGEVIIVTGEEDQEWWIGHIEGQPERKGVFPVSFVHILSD
5-hydroxytryptamine receptor 2A, sequence (P35363 whole entry): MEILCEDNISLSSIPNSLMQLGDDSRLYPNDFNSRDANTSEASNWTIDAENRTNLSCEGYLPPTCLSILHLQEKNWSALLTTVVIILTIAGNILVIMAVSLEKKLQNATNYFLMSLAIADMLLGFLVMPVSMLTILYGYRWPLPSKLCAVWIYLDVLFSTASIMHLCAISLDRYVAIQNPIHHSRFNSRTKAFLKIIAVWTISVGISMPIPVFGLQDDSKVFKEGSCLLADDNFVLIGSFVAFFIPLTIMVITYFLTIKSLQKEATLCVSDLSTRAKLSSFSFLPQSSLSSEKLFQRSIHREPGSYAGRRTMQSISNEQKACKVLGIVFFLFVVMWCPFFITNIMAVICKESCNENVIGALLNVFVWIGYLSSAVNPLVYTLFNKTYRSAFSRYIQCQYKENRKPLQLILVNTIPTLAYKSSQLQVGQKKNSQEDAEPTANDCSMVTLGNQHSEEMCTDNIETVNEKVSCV
Paired box protein Pax-8, sequence (Q06710 whole entry): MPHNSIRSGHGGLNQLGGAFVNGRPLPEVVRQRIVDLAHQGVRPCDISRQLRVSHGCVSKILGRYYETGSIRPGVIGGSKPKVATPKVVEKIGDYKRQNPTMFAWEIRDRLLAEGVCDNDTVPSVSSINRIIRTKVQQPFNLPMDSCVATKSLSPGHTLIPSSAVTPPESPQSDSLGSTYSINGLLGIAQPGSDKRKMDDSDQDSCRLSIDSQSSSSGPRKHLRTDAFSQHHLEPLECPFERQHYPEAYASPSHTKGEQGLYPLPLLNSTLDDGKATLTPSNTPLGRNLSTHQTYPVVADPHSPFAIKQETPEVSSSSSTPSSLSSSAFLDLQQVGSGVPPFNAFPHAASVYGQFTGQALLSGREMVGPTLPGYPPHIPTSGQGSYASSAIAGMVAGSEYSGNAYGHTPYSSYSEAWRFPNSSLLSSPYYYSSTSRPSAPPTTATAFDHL

With `CCOC(=O)N1CCC(N2CCCC(C(=O)c3ccccc3OC)C2)CC1` (stereo not given) the EC50 [1] was 41.2 µM (inactive) and the EC50 [2] was 92.5 µM (inactive).
In the case of `CCCN(CC(=O)Nc1ccccc1C)C(=O)C1CCN(S(=O)(=O)c2ccc(C)c(C)c2)CC1`, the AC50 [3] is reported as 13.2 µM (active).
For `COc1ccc(Oc2c(Cl)cnn(CC(=O)N(C3CCCCC3)C3CCCCC3)c2=O)cc1`, the IC50 [4] was 15.7 µM (inactive) and the IC50 [5] was > 20 µM (inactive).
In the case of `CN(Cc1ccccc1F)C(=O)CN1c2cccc3cccc(c23)S1(=O)=O`, the IC50 [6] is reported as 47.1 µM (inactive) and the IC50 [7] is reported as 41 µM (inactive).
For `Cc1cc2nc(N)sc2cc1C`, the AC50 [8] was 10 µM (inconclusive).
For `COc1ccc(CCNC(=O)CSc2nc3nc(O)cc(O)c3s2)cc1`, the IC50 [9] was 97.8 µM (inactive), the IC50 [10] was 6.9 µM (active) and the IC50 [11] was 35.9 µM (inactive).
In the case of `O=c1c(Oc2ccc3c(c2)OCO3)c(Cl)cnn1C1c2ccccc2-c2ccccc21`, the IC50 [4] is reported as > 20 µM (inactive) and the IC50 [5] is reported as > 20 µM (inactive).
In the case of `CCN1CCN(Cc2ccc(NC(=O)c3ccc(C)c(NC(=O)C(=O)c4c[nH]c5ccccc45)c3)cc2C(F)(F)F)CC1`, the EC50 [12] is reported as 4.17 µM (inconclusive), the AC50 [13] is reported as 68 µM (active) and the AC50 [14] is reported as 12 µM (active). For the same molecule, the IC50 [15] was 39.7 µM (inactive), the AC50 [16] was 8.7 µM (active) and the AC50 [17] was 11.3 µM (active). For the same molecule, the EC50 [18] was 5.83 µM (active), the IC50 [19] was 2.27 µM (active) and the EC50 [20] was > 150 µM (not active). The AC50 [21] was 7.69 µM (active), the AC50 [22] was 14.1 µM (active) and the AC50 [23] was 12.1 µM (active). For the same molecule, the EC50 [24] was 7.65 µM (active), the EC50 [25] was 7.74 µM (active) and the EC50 [26] was > 89.2 µM (inactive). For the same molecule, the EC50 [27] was 4.28 µM (active) and the IC50 [28] was > 20 µM (inactive).
